Legend:
[1] = molecular target: T1, Nicotinamide N-methyltransferase (Homo sapiens, UniProt P40261); assay: Inhibition of N-terminal His6-tagged wild type human NNMT expressed in Escherichia coli NiCo21(DE3) assessed as reduction in 1-methylquinolinium level using quinoline as substrate in presence of SAM and measured every 27 seconds for 5.5 mins by fluorescence-based assay; settings: read-out: pKi (converted)
T1 sequence (P40261 whole entry): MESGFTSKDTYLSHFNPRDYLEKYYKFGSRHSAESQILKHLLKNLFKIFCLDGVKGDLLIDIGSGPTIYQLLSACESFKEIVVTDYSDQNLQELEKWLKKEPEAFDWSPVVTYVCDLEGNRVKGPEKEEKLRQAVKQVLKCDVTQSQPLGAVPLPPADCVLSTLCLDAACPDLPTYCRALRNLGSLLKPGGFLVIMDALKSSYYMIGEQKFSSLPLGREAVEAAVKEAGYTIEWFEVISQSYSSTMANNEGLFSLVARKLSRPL

[2] = Permeability across apical to basolateral side in human Caco2 cells after 60 mins by HPLC-MS/MS analysis; assay type: ADME, cell-based; settings: caco-2, 1 h
[3] = molecular target: T2, Nicotinamide N-methyltransferase (Homo sapiens) (UniProt P40261); settings: K562, Lysate
T2 sequence (whole entry): T1 sequence (P40261 whole entry)

U2OS = assay: Cytotoxicity against human U2OS cells at 100 uM after 48 hrs by CellTiter-Glo luminescent cell viability; assay type: cell-based

Ki [1]	Compound	other results
1050 nM	NC(=O)CCC[C@H](C#Cc1cccc(C(N)=O)c1)C[C@H]1O[C@@H](n2cnc3c(N)ncnc32)[C@H](O)[C@@H]1O	
0.191 nM	NC(=O)c1cc(C#C[C@@H](CC[C@H](N)C(=O)O)C[C@H]2O[C@@H](n3cnc4c(N)ncnc43)[C@H](O)[C@@H]2O)ccc1Cl	
75.9 nM	NC(=O)NCC[C@H](C#Cc1cccc(C(N)=O)c1)C[C@H]1O[C@@H](n2cnc3c(N)ncnc32)[C@H](O)[C@@H]1O	permeability [2]: Impermeable; ΔTm [3]: 5 °C; Activity (U2OS): Non-Toxic
437 nM	COC(=O)[C@@H](N)CC[C@H](C#Cc1cccc(C(N)=O)c1)C[C@H]1O[C@@H](n2cnc3c(N)ncnc32)[C@H](O)[C@@H]1O	permeability [2]: Impermeable; Activity (U2OS): Non-Toxic
1860 nM	Nc1ncnc2c1ncn2[C@@H]1O[C@H](C[C@@H](C#Cc2ccc3c(c2)C(=O)NC3)CC[C@H](N)C(=O)O)[C@@H](O)[C@H]1O	
2.63 nM	NC(=O)c1cc(C#C[C@@H](CC[C@H](N)C(=O)O)C[C@H]2O[C@@H](n3cnc4c(N)ncnc43)[C@H](O)[C@@H]2O)ccc1C(F)(F)F	
17 nM	NC(=O)c1cccc(C#C[C@@H](CC[C@H](N)C(N)=O)C[C@H]2O[C@@H](n3cnc4c(N)ncnc43)[C@H](O)[C@@H]2O)c1	permeability [2]: Impermeable; Activity (U2OS): Non-Toxic
35.5 nM	NC(=O)c1ccnc(C#C[C@@H](CC[C@H](N)C(=O)O)C[C@H]2O[C@@H](n3cnc4c(N)ncnc43)[C@H](O)[C@@H]2O)c1	
77600 nM	CO[C@@H]1O[C@H](C[C@@H](C#Cc2cccc(C(N)=O)c2)CC[C@H](N)C(=O)O)[C@@H](O)[C@H]1O	
3.39 nM	Cc1ccc(C#C[C@@H](CC[C@H](N)C(=O)O)C[C@H]2O[C@@H](n3cnc4c(N)ncnc43)[C@H](O)[C@@H]2O)cc1C(N)=O	
3890 nM	NC(=O)c1cccc(C#C[C@@H]2C[C@H]2[C@H]2O[C@@H](n3cnc4c(N)ncnc43)[C@H](O)[C@@H]2O)c1	
5750 nM	NC(=O)c1ccc(C#C[C@@H](CC[C@H](N)C(=O)O)C[C@H]2O[C@@H](n3cnc4c(N)ncnc43)[C@H](O)[C@@H]2O)cc1	
12600 nM	Nc1ncnc2c1ncn2[C@@H]1O[C@H](C[C@@H](C#Cc2ccccc2)CC[C@H](N)C(=O)O)[C@@H](O)[C@H]1O	
21400 nM	Nc1ncnc2c1ncn2[C@@H]1O[C@H](CCCC[C@H](N)C(=O)O)[C@@H](O)[C@H]1O	
5.01 nM	NC(=O)c1cncc(C#C[C@@H](CC[C@H](N)C(=O)O)C[C@H]2O[C@@H](n3cnc4c(N)ncnc43)[C@H](O)[C@@H]2O)c1	
0.24 nM	NC(=O)c1cccc(C#C[C@@H](CCC[C@H](N)C(=O)O)C[C@H]2O[C@@H](n3cnc4c(N)ncnc43)[C@H](O)[C@@H]2O)c1	
19500 nM	NC(=O)c1ccccc1C#C[C@@H](CC[C@H](N)C(=O)O)C[C@H]1O[C@@H](n2cnc3c(N)ncnc32)[C@H](O)[C@@H]1O	
22400 nM	NC(=O)c1cccc(C#C[C@@H](CCCC(=O)O)C[C@H]2O[C@@H](n3cnc4c(N)ncnc43)[C@H](O)[C@@H]2O)c1	
55 nM	Nc1ncnc2c1ncn2[C@@H]1O[C@H](C[C@@H](C#Cc2ccc3c(c2)C(=O)NCC3)CC[C@H](N)C(=O)O)[C@@H](O)[C@H]1O	
89.1 nM	NC(=O)c1cccc(CCN(CCC[C@H](N)C(=O)O)C[C@H]2O[C@@H](n3cnc4c(N)ncnc43)[C@H](O)[C@@H]2O)c1	
1.86 nM	NC(=O)c1cc(C#C[C@@H](CC[C@H](N)C(=O)O)C[C@H]2O[C@@H](n3cnc4c(N)ncnc43)[C@H](O)[C@@H]2O)ccc1F	
263 nM	NC(=O)c1cccc(C#CCC[C@H]2O[C@@H](n3cnc4c(N)ncnc43)[C@H](O)[C@@H]2O)c1	
195 nM	Nc1ncnc2c1ncn2[C@@H]1O[C@H](C[C@@H](C#Cc2cccc(S(N)(=O)=O)c2)CC[C@H](N)C(=O)O)[C@@H](O)[C@H]1O	
3720 nM	Nc1cccc2c(C#C[C@@H](CC[C@H](N)C(=O)O)C[C@H]3O[C@@H](n4cnc5c(N)ncnc54)[C@H](O)[C@@H]3O)cccc12	
47900 nM	C#C[C@@H](CC[C@H](N)C(=O)O)C[C@H]1O[C@@H](n2cnc3c(N)ncnc32)[C@H](O)[C@@H]1O	
8.91 nM	NC(=O)c1cc(C#C[C@@H](CC[C@H](N)C(=O)O)C[C@H]2O[C@@H](n3cnc4c(N)ncnc43)[C@H](O)[C@@H]2O)ccn1	
6.76 nM	NC(=O)c1cccc(C#C[C@@H](CC[C@H](N)C(=O)O)C[C@H]2O[C@@H](n3cnc4c(N)ncnc43)[C@H](O)[C@@H]2O)n1	
32.4 nM	NC(=O)c1cc(C#C[C@@H](CC[C@H](N)C(=O)O)C[C@H]2O[C@@H](n3cnc4c(N)ncnc43)[C@H](O)[C@@H]2O)c2c(c1)OCO2	

Compound	Ki [1]	other results
NC(=O)c1cccc(CC[C@@H](CC[C@H](N)C(=O)O)C[C@H]2O[C@@H](n3cnc4c(N)ncnc43)[C@H](O)[C@@H]2O)c1	4.68 nM	
NC(=O)c1cccc(CCN(CC[C@H](N)C(=O)O)C[C@H]2O[C@@H](n3cnc4c(N)ncnc43)[C@H](O)[C@@H]2O)c1	912 nM	
NCCC[C@H](C#Cc1cccc(C(N)=O)c1)C[C@H]1O[C@@H](n2cnc3c(N)ncnc32)[C@H](O)[C@@H]1O	57.5 nM	permeability [2]: 1.3 ×10⁻⁶ cm/s; Activity (U2OS): Non-Toxic
NC(=O)c1cccc(C#C[C@H](CC[C@H](N)C(=O)O)C[C@H]2O[C@@H](n3cnc4c(N)ncnc43)[C@H](O)[C@@H]2O)c1	123 nM	
NC(=O)c1cccc(CC[C@H](CC[C@H](N)C(=O)O)C[C@H]2O[C@@H](n3cnc4c(N)ncnc43)[C@H](O)[C@@H]2O)c1	107 nM	

Reference: ChEMBL document CHEMBL4414609, “High-Affinity Alkynyl Bisubstrate Inhibitors of Nicotinamide N-Methyltransferase (NNMT)” (J Med Chem, 2019)
